From EPA's ToxValDB 9.5 (doi:10.2903/j.efsa.2010.1592)

Key:
[1] = system: Typhlodromus pyri; assay: LR50; higher = less toxic; conditions: not reported; mortality
[2] = system: Pimephales promelas; conditions: chronic/long-term; duration: 32 days; other
[3] = system: Tagia sp.; conditions: acute; duration: 14 days; mortality
[4] = system: Oncorhynchus mykiss; conditions: acute; duration: 96 hours; mortality
[5] = system: Apis mellifera; conditions: acute; duration: 48 hours; dermal; mortality
[6] = system: Canidae; conditions: oral, Dog Other, histopathology: nonneoplastic
[7] = system: Rattus norvegicus
[8] = system: Anas platyrhynchos; conditions: oral, mortality
[9] = system: Colinus virginianus
[10] = system: Daphnia magna; conditions: chronic/long-term; duration: 21 days; reproduction

Compound: COc1cc(OC)n2nc(S(=O)(=O)Nc3c(Cl)ccc(C)c3Cl)nc2n1 [Metosulam]
- LR50 [1]: > 40 mg/kg
- NOEC [2]: 4.24 mg/L
- LC50 [3]: > 1000 mg/kg
- LC50 [4]: > 29.3 µg/mL
- LD50 [5]: > 100 µg/piece
- NOAEL ([6]; chronic, duration: 1 years): 10 mg/kg-day
- NOAEL ([6]; short-term, duration: 2 weeks, diet): 25 mg/kg-day
- LD50 ([7]; acute, oral, mortality): > 5000 mg/kg
- NOAEL ([7]; chronic, duration: 2 years, histopathology: nonneoplastic): 5 mg/kg-day
- NOEL ([7]; chronic, histopathology: nonneoplastic): 30 mg/kg-day
- LD50 ([8]; acute, unspecified): > 2000 mg/kg
- LC50 ([8]; short-term, feed): > 1920 mg/kg-day
- LC50 ([9]; acute, oral, diet, mortality): > 1400 mg/kg-day
- LD50 ([9]; acute, oral, mortality): > 2250 mg/kg
- NOEC ([9]; reproduction developmental): 22 mg/kg-day
- NOEC [10]: 2.5 mg/L
